From patent publication US11384079B2, “6-5 fused rings as C5a inhibitors” (CHEMOCENTRYX, INC., priority 2017, dated 2022)

The compounds below were run against T1, C5aR (Homo sapiens, UniProt P21730) (assay: chemotaxis assay (C5aR mediated migration)). Conditions: migration of U937 or neutrophil cells toward C5a (0.03 nM), 1.5 hours at 37° C., read-out: Mig IC50.
T1 construct: U937 cells are a monocytic cell line which express C5aR; host or cells: U937 cells (cAMP treated) or isolated neutrophils
T1 sequence (P21730 1-350): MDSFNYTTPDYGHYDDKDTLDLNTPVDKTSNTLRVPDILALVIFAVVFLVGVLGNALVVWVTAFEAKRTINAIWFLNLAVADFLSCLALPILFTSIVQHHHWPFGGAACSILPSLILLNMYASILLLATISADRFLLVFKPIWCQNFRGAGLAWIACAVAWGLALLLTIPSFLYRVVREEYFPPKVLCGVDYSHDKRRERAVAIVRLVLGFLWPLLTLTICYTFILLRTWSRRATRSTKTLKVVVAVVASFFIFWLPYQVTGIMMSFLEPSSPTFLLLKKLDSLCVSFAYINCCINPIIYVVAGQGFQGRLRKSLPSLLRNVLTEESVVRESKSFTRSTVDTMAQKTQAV
Type: cell-based
Outline: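 Migration of cAMP-treated U937 cells (0.5 mM overnight), or of human or murine neutrophils, toward C5a was measured through 5 μm polycarbonate filters in HBSS with 1% FBS. SDF-1α served as a specificity control. After 1.5 h at 37 °C, lower-chamber cells were counted directly or by CyQuant.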

SMILES	IC50 [µM]
COc1cccc(C)c1-n1nc2c(c1-c1ccc3[nH]ccc3c1)CN(c1cc(C(C)(C)C)ccc1C)CC2 [Example 1.006]	0.005 to 0.05
CCc1cccc(CC)c1-n1nc2c(c1-c1ccc(Cl)c3[nH]ccc13)CN(c1ncc(C(F)(F)F)cc1F)CC2 [Example 1.185]	< 0.005
CCC(CC)N1CCc2nn(-c3c(C)cccc3OCC(C)C)c(-c3ccc4[nH]ccc4c3)c2C1 [Example 1.207]	0.005 to 0.05
Cc1cccc(C)c1-n1nc2c(c1-c1cccc3[nH]ccc13)CN(c1ncc(Cl)cc1Cl)CC2 [Example 1.196]	0.005 to 0.05
Cc1cccc(C)c1-n1nc2c(c1-c1cc(F)c(C)c3[nH]ccc13)CN(c1ncc(C(F)(F)F)cn1)CC2 [Example 1.102]	0.005 to 0.05
CCc1cccc(CC)c1-n1nc2c(c1-c1ccc(Cl)c3[nH]ccc13)CN(c1ncc(C(N)=O)cn1)CC2 [Example 1.064]	0.05 to 0.5
CCc1cccc(CC)c1-n1nc2c(c1-c1ccc(F)c3[nH]ccc13)CN(c1ncc(C(F)(F)F)cc1Cl)CC2 [Example 1.183]	0.005 to 0.05
CCc1cccc(CC)c1-n1nc2c(c1-c1c(F)cc(Cl)c3[nH]ccc13)CN(c1ncc(C(F)(F)F)cn1)CC2 [Example 1.137]	< 0.005
CCc1cccc(CC)c1-n1nc2c(c1-c1ccc3[nH]ccc3n1)CN(c1ncc(C(F)(F)F)cn1)CC2 [Example 1.010]	> 0.5
Cc1cccc(C)c1-n1nc2c(c1-c1ccc(Cl)c3[nH]ccc13)CN(c1ncc(Cl)cn1)CC2 [Example 1.155]	0.005 to 0.05
Cc1cccc(OCC(C)C)c1-n1nc2c(c1-c1ccc3[nH]ccc3c1)CN(Cc1ccc(C(F)(F)F)cc1C(F)(F)F)CC2 [Example 1.234]	0.005 to 0.05
FC(F)(F)c1ccccc1CN1CCc2nn(-c3c(Cl)cccc3Cl)c(-c3ccc4[nH]ccc4c3)c2C1 [Example 1.219]	0.005 to 0.05
CCc1cccc(CC)c1-n1nc2c(c1-c1ccc(Cl)c3[nH]ccc13)CN(c1ncc(Cl)c(OC)n1)CC2 [Example 1.121]	0.005 to 0.05
CCc1cccc(CC)c1-n1nc2c(c1-c1cc(F)c(Cl)c3[nH]ncc13)CN(c1ncc(C(F)(F)F)cn1)CC2 [Example 1.041]	< 0.005
CCc1cccc(CC)c1-n1nc2c(c1-c1ccc(C(N)=O)c3[nH]ccc13)CN(c1ncc(C(F)(F)F)cc1F)CC2 [Example 1.168]	0.05 to 0.5
CCc1cccc(CC)c1-n1nc2c(c1-c1c(F)cc(OC)c3[nH]ccc13)CN(c1ncc(C(F)(F)F)cc1F)CC2 [Example 1.045]	< 0.005
Cc1cccc(C)c1-n1nc2c(c1-c1ccc3[nH]ncc3c1)CN(c1ncc(Cl)cc1Cl)CC2 [Example 1.192]	> 0.5
COc1cccc(F)c1-n1nc2c(c1-c1cc(F)c(OC)c3[nH]ccc13)CN(c1ncc(C(F)(F)F)cn1)CC2 [Example 1.007]	0.05 to 0.5
CCc1cccc(CC)c1-n1nc2c(c1-c1ccc3[nH]ccc3c1)CN(Cc1ccccc1C(F)(F)F)CC2 [Example 1.231]	< 0.005
CCc1cccc(CC)c1-n1nc2c(c1-c1ccc(Cl)c3[nH]ccc13)CN(c1ncc(Cl)cc1F)CC2 [Example 1.099]	< 0.005
Cc1cccc(C)c1-n1nc2c(c1-c1ccc(F)c3[nH]cc(Cl)c13)CN(c1ncc(C(F)(F)F)cc1F)CC2 [Example 1.166]	0.05 to 0.5
CCc1cccc(CC)c1-n1nc2c(c1-c1ccc(Cl)c3[nH]ccc13)CN(c1ncc(F)cn1)CC2 [Example 1.158]	< 0.005
CCc1cccc(CC)c1-n1nc2c(c1-c1ccc(C)c3[nH]ccc13)CN(c1ncc(C(C)C)cn1)CC2 [Example 1.147]	< 0.005
Cc1cccc(OCC(C)C)c1-n1nc2c(c1-c1ccc3[nH]ccc3c1)CN(c1ncc(Cl)cc1Cl)CC2 [Example 1.200]	< 0.005
CCc1cccc(CC)c1-n1nc2c(c1-c1cc(F)c(OC)c3[nH]c(F)nc13)CN(c1ncc(C(F)(F)F)cn1)CC2 [Example 1.019]	0.005 to 0.05
CCc1cccc(CC)c1-n1nc2c(c1-c1cc(F)c(F)c3[nH]ccc13)CN(c1ncc(C(F)(F)F)cn1)CC2 [Example 1.118]	0.005 to 0.05
